{"source": "PubChem BioAssay AID1259407", "about": "(Chemical Carcinogenesis Research Information System (CCRIS), 2018)", "system": "CCRIS mutagenicity, Ames/micronucleus/aberration tests", "experiment": "CCRIS mutagenicity studies", "key": {"[1]": {"conditions": "Test System: AMES SALMONELLA TYPHIMURIUM, Strain/Indicator: TA98, Metabolic Activation: NONE, Method: STANDARD PLATE"}, "[2]": {"conditions": "Test System: AMES SALMONELLA TYPHIMURIUM, Strain/Indicator: TA100, Metabolic Activation: NONE, Method: PREINCUBATION"}, "[3]": {"conditions": "Test System: AMES SALMONELLA TYPHIMURIUM, Strain/Indicator: TA100, Metabolic Activation: NONE, Method: STANDARD PLATE"}, "[4]": {"conditions": "Test System: MOUSE LYMPHOMA, Strain/Indicator: L5178Y (TK+/TK-), Metabolic Activation: NONE, Method: SUSPENSION/PLATE"}}, "note": "Activity calls are given as the source filed them. The rule behind the calls is not given here."}
{"compound": "Cc1ncc[nH]1", "values": [{"measurement": "mutagenic call", "setting": "End Point: IN VIVO MICRONUCLEUS, Test System: BONE MARROW POLYCHROMATIC ERYTHROCYTES, Species: MOUSE, Strain/Sex: B6C3F1/MALE, Route: IP", "value": "inactive; negative"}, {"measurement": "mutagenic call", "setting": "End Point: IN VIVO MICRONUCLEUS, Test System: BONE MARROW POLYCHROMATIC ERYTHROCYTES, Species: RAT, Strain/Sex: F344/N/MALE, Route: IP", "value": "inactive; negative"}, {"measurement": "mutagenic call", "setting": "End Point: IN VIVO MICRONUCLEUS, Test System: PERIPHERAL BLOOD NORMOCHROMATIC ERYTHROCYTES, Species: MOUSE, Strain/Sex: B6C3F1/MALE, FEMALE, Route: ORAL (DIET)", "value": "active; positive"}, {"measurement": "mutagenic call", "setting": "Test System: AMES SALMONELLA TYPHIMURIUM, Strain/Indicator: TA97, Metabolic Activation: HAMSTER, LIVER, S-9, AROCLOR 1254, Method: PREINCUBATION", "value": "inactive; negative"}, {"measurement": "mutagenic call", "setting": "Test System: AMES SALMONELLA TYPHIMURIUM, Strain/Indicator: TA97, Metabolic Activation: NONE, Method: PREINCUBATION", "value": "inactive; negative"}, {"measurement": "mutagenic call", "setting": "Test System: AMES SALMONELLA TYPHIMURIUM, Strain/Indicator: TA97, Metabolic Activation: RAT, LIVER, S-9, AROCLOR 1254, Method: PREINCUBATION", "value": "inactive; negative"}, {"measurement": "mutagenic call", "setting": "Test System: AMES SALMONELLA TYPHIMURIUM, Strain/Indicator: TA98, Metabolic Activation: HAMSTER, LIVER, S-9, AROCLOR 1254 (10%), Method: STANDARD PLATE", "value": "inactive; negative"}, {"measurement": "mutagenic call", "setting": "Test System: AMES SALMONELLA TYPHIMURIUM, Strain/Indicator: TA98, Metabolic Activation: HAMSTER, LIVER, S-9, AROCLOR 1254, Method: PREINCUBATION", "value": "inactive; negative"}, {"measurement": "mutagenic call", "setting": "Test System: AMES SALMONELLA TYPHIMURIUM, Strain/Indicator: TA98, Metabolic Activation: NONE, Method: PREINCUBATION", "value": "inactive; negative"}, {"measurement": "mutagenic call", "setting": "[1]", "value": "inactive; negative"}, {"measurement": "mutagenic call", "setting": "Test System: AMES SALMONELLA TYPHIMURIUM, Strain/Indicator: TA98, Metabolic Activation: RAT, LIVER, S-9, AROCLOR 1254 (10%), Method: STANDARD PLATE", "value": "inactive; negative"}, {"measurement": "mutagenic call", "setting": "Test System: AMES SALMONELLA TYPHIMURIUM, Strain/Indicator: TA98, Metabolic Activation: RAT, LIVER, S-9, AROCLOR 1254, Method: PREINCUBATION", "value": "inactive; negative"}, {"measurement": "mutagenic call", "setting": "Test System: AMES SALMONELLA TYPHIMURIUM, Strain/Indicator: TA100, Metabolic Activation: HAMSTER, LIVER, S-9, AROCLOR 1254 (10%), Method: STANDARD PLATE", "value": "inactive; negative"}, {"measurement": "mutagenic call", "setting": "Test System: AMES SALMONELLA TYPHIMURIUM, Strain/Indicator: TA100, Metabolic Activation: HAMSTER, LIVER, S-9, AROCLOR 1254, Method: PREINCUBATION", "value": "inactive; negative"}, {"measurement": "mutagenic call", "setting": "[2]", "value": "inactive; negative"}, {"measurement": "mutagenic call", "setting": "[3]", "value": "inactive; negative"}, {"measurement": "mutagenic call", "setting": "Test System: AMES SALMONELLA TYPHIMURIUM, Strain/Indicator: TA100, Metabolic Activation: RAT, LIVER, S-9, AROCLOR 1254 (10%), Method: STANDARD PLATE", "value": "inactive; negative"}, {"measurement": "mutagenic call", "setting": "Test System: AMES SALMONELLA TYPHIMURIUM, Strain/Indicator: TA100, Metabolic Activation: RAT, LIVER, S-9, AROCLOR 1254, Method: PREINCUBATION", "value": "inactive; negative"}, {"measurement": "mutagenic call", "setting": "Test System: AMES SALMONELLA TYPHIMURIUM, Strain/Indicator: TA1535, Metabolic Activation: HAMSTER, LIVER, S-9, AROCLOR 1254 (10%), Method: STANDARD PLATE", "value": "inactive; negative"}, {"measurement": "mutagenic call", "setting": "Test System: AMES SALMONELLA TYPHIMURIUM, Strain/Indicator: TA1535, Metabolic Activation: HAMSTER, LIVER, S-9, AROCLOR 1254, Method: PREINCUBATION", "value": "inactive; negative"}, {"measurement": "mutagenic call", "setting": "Test System: AMES SALMONELLA TYPHIMURIUM, Strain/Indicator: TA1535, Metabolic Activation: NONE, Method: PREINCUBATION", "value": "inactive; negative"}, {"measurement": "mutagenic call", "setting": "Test System: AMES SALMONELLA TYPHIMURIUM, Strain/Indicator: TA1535, Metabolic Activation: NONE, Method: STANDARD PLATE", "value": "inactive; negative"}, {"measurement": "mutagenic call", "setting": "Test System: AMES SALMONELLA TYPHIMURIUM, Strain/Indicator: TA1535, Metabolic Activation: RAT, LIVER, S-9, AROCLOR 1254 (10%), Method: STANDARD PLATE", "value": "inactive; negative"}, {"measurement": "mutagenic call", "setting": "Test System: AMES SALMONELLA TYPHIMURIUM, Strain/Indicator: TA1535, Metabolic Activation: RAT, LIVER, S-9, AROCLOR 1254, Method: PREINCUBATION", "value": "inactive; negative"}, {"measurement": "mutagenic call", "setting": "Test System: AMES SALMONELLA TYPHIMURIUM, Strain/Indicator: TA1537, Metabolic Activation: HAMSTER, LIVER, S-9, AROCLOR 1254 (10%), Method: STANDARD PLATE", "value": "inactive; negative"}, {"measurement": "mutagenic call", "setting": "Test System: AMES SALMONELLA TYPHIMURIUM, Strain/Indicator: TA1537, Metabolic Activation: NONE, Method: STANDARD PLATE", "value": "inactive; negative"}, {"measurement": "mutagenic call", "setting": "Test System: AMES SALMONELLA TYPHIMURIUM, Strain/Indicator: TA1537, Metabolic Activation: RAT, LIVER, S-9, AROCLOR 1254 (10%), Method: STANDARD PLATE", "value": "inactive; negative"}, {"measurement": "mutagenic call", "setting": "Test System: AMES SALMONELLA TYPHIMURIUM, Strain/Indicator: TA1538, Metabolic Activation: HAMSTER, LIVER, S-9, AROCLOR 1254 (10%), Method: STANDARD PLATE", "value": "inactive; negative"}, {"measurement": "mutagenic call", "setting": "Test System: AMES SALMONELLA TYPHIMURIUM, Strain/Indicator: TA1538, Metabolic Activation: NONE, Method: STANDARD PLATE", "value": "inactive; negative"}, {"measurement": "mutagenic call", "setting": "Test System: AMES SALMONELLA TYPHIMURIUM, Strain/Indicator: TA1538, Metabolic Activation: RAT, LIVER, S-9, AROCLOR 1254 (10%), Method: STANDARD PLATE", "value": "inactive; negative"}, {"measurement": "mutagenic call", "setting": "[4]", "value": "inactive; negative. reevaluation of results: inconclusive"}, {"measurement": "mutagenic call", "setting": "Test System: MOUSE LYMPHOMA, Strain/Indicator: L5178Y (TK+/TK-), Metabolic Activation: RAT, LIVER, S-9, AROCLOR 1254, Method: SUSPENSION/PLATE", "value": "inactive; negative. reevaluation of results: inconclusive"}]}
{"compound": "Nc1nc(NO)c2[nH]cnc2n1", "values": [{"measurement": "mutagenic call", "setting": "Test System: AMES SALMONELLA TYPHIMURIUM, Strain/Indicator: HISG46, Metabolic Activation: NONE, Method: STANDARD PLATE", "value": "active; positive"}, {"measurement": "mutagenic call", "setting": "[1]", "value": "inactive; negative"}, {"measurement": "mutagenic call", "setting": "Test System: AMES SALMONELLA TYPHIMURIUM, Strain/Indicator: TA100(1,8-DNP6), Metabolic Activation: NONE, Method: PREINCUBATION", "value": "active; positive"}, {"measurement": "mutagenic call", "setting": "Test System: AMES SALMONELLA TYPHIMURIUM, Strain/Indicator: TA100(NR), Metabolic Activation: NONE, Method: PREINCUBATION", "value": "active; positive"}, {"measurement": "mutagenic call", "setting": "[2]", "value": "active; positive"}, {"measurement": "mutagenic call", "setting": "[3]", "value": "active; positive"}, {"measurement": "mutagenic call", "setting": "Test System: AMES SALMONELLA TYPHIMURIUM, Strain/Indicator: TA100, Metabolic Activation: RAT, LIVER, S-9, KANECHLOR 500, Method: PREINCUBATION", "value": "active; positive"}, {"measurement": "mutagenic call", "setting": "Test System: AMES SALMONELLA TYPHIMURIUM, Strain/Indicator: TA1950, Metabolic Activation: NONE, Method: STANDARD PLATE", "value": "active; positive"}, {"measurement": "mutagenic call", "setting": "Test System: CHINESE HAMSTER OVARY, Strain/Indicator: CHO-K1-BH4 (HGPRT), Metabolic Activation: NONE, Method: SUSPENSION", "value": "active; positive"}, {"measurement": "mutagenic call", "setting": "Test System: E. COLI, Strain/Indicator: CM871, Metabolic Activation: NONE, Method: STANDARD PLATE", "value": "active; positive"}, {"measurement": "mutagenic call", "setting": "Test System: E. COLI, Strain/Indicator: WP2, Metabolic Activation: NONE, Method: STANDARD PLATE", "value": "active; positive"}, {"measurement": "mutagenic call", "setting": "Test System: E. COLI, Strain/Indicator: WP2S, Metabolic Activation: NONE, Method: STANDARD PLATE", "value": "active; positive"}, {"measurement": "mutagenic call", "setting": "Test System: E. COLI, Strain/Indicator: WP2 UVRA, Metabolic Activation: NONE, Method: STANDARD PLATE", "value": "active; positive"}, {"measurement": "mutagenic call", "setting": "Test System: MOUSE LYMPHOMA, Strain/Indicator: L5178Y (TK+/TK-)/6-THIOGUANINE, Metabolic Activation: NONE, Method: SUSPENSION", "value": "active; positive"}, {"measurement": "mutagenic call", "setting": "Test System: MOUSE LYMPHOMA, Strain/Indicator: L5178Y (TK+/TK-)/6-THIOGUANINE, Metabolic Activation: NONE, Method: SUSPENSION IN TRAYS", "value": "active; positive"}, {"measurement": "mutagenic call", "setting": "Test System: MOUSE LYMPHOMA, Strain/Indicator: L5178Y (TK+/TK-)/OUABAIN, Metabolic Activation: NONE, Method: SUSPENSION", "value": "active; positive"}, {"measurement": "mutagenic call", "setting": "Test System: MOUSE LYMPHOMA, Strain/Indicator: L5178Y (TK+/TK-)/OUABAIN, Metabolic Activation: NONE, Method: SUSPENSION IN TRAYS", "value": "active; positive"}, {"measurement": "mutagenic call", "setting": "Test System: MOUSE LYMPHOMA, Strain/Indicator: L5178Y (TK+/TK-)/TRIFLUOROTHYMIDINE, Metabolic Activation: NONE, Method: SUSPENSION", "value": "active; positive"}, {"measurement": "mutagenic call", "setting": "Test System: MOUSE LYMPHOMA, Strain/Indicator: L5178Y (TK+/TK-)/TRIFLUOROTHYMIDINE, Metabolic Activation: NONE, Method: SUSPENSION IN TRAYS", "value": "active; positive"}, {"measurement": "mutagenic call", "setting": "[4]", "value": "active; positive"}]}
